Experimental data from patent publication US10308686B2, “Gamma-AApeptides with potent and broad-spectrum antimicrobial activity” (priority 2012, dated 2019).
In brackets after ≈: the same amount, converted by molar mass. Where two headings read alike, the source gives them in different places. No end group written: not given here.

How the values were obtained:
[1] = tested on: human red blood cells (hRBC's); test: Hemolysis assay; assay type: cell-based; settings: for Hemolysis HC10 / Hemolysis HC50: red cells of human
In short: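 Washed human RBCs (K2 EDTA) as 5% v/v suspension in PBS, mixed 1:1 with two-fold serial peptide dilutions (250–1.6 μg/ml, or 1 mg/ml–6.3 μg/ml for lipidated γ-AApeptides) in PBS; 1 h at 37 °C. Supernatant OD 360 nm, normalised to PBS (0%) and 0.2% Triton-X-100 (100%); H50 = concentration giving 50% hemolysis.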

[2] = tested on: K. pneumoniae (ATCC 13383)
[3] = tested on: multi-drug resistant P. aeruginosa ATCC 27853; settings: ATCC 27853
[4] = tested on: multi-drug resistant S. epidermidis (RP62A); settings: for MIC, Gram positive S. epidermidis: Table 7
[5] = tested on: vancomycin-resistant E. faecalis (ATCC 700802); settings: for MIC, Gram positive E. faecalis: Table 7
[6] = tested on: methicillin-resistant S. aureus (ATCC 33592); settings: for MIC, Gram positive S. aureus: Table 7
[7] = tested on: methicillin-resistant S. aureus (MRSA, USA100 lineage); settings: for MIC, MRSA USA100: Table 3
[8] = tested on: human red blood cells (hRBC's); settings: cited from earlier work
[9] = tested on: Gram-positive and Gram-negative bacteria and the fungus C. albicans; test: Antimicrobial assays, whole panel (statements in words); assay type: cell-based
S. aureus ATCC 33592 = assay type: cell-based; settings: serial passage at half-MIC

Molecule	Hemolysis (H50) [1] [µg/mL]	Hemolysis HC10 [1] [µg/mL]	Hemolysis HC50 [1] [µg/mL]	MIC, E. coli (E. coli (JM109)) [µg/mL]	MIC, Gram negative E. coli (E. coli (JM109)) [µg/mL]	MIC, Gram negative K. pneumoniae [2] [µg/mL]	MIC, K. pneumoniae (causing pneumonia) [2] [µg/mL]	MIC, Gram negative P. aeruginosa [3] [µg/mL]	MIC, P. aeruginosa [3] [µg/mL]	MIC, B. subtilis (B. subtilis (BR151)) [µg/mL]	MIC, Gram positive B. subtilis (B. subtilis (BR151)) [µg/mL]	MIC, S. epidermidis (multi-drug resistant) ([4]; Table 1) [µg/mL]	MIC, S. epidermidis (multi-drug resistant) ([4]; Table 3) [µg/mL]	MIC, Gram positive S. epidermidis [4] [µg/mL]	MIC, E. faecalis (vancomycin-resistant) ([5]; Table 1) [µg/mL]	MIC, E. faecalis (vancomycin-resistant) ([5]; Table 3) [µg/mL]	MIC, Gram positive E. faecalis [5] [µg/mL]	MIC, S. aureus (methicillin-resistant) ([6]; Table 1) [µg/mL]	MIC, Gram positive S. aureus [6] [µg/mL]	MIC, MRSA USA100 [7] [µg/mL]	other results
CC(C)C[C@@H](CN(CC(=O)N[C@@H](CCCCN)CN(CC(N)=O)C(=O)CCc1ccccc1)C(=O)CCc1ccccc1)NC(=O)CN(C[C@H](CCCCN)NC(=O)CN(C[C@H](CCCCN)NC(=O)CN(C[C@H](CC(C)C)NC(=O)CN(C[C@H](CCCCN)NC(=O)CN(C[C@@H](N)CCCCN)C(=O)CCc1ccccc1)C(=O)CCc1ccccc1)C(=O)CCc1ccccc1)C(=O)CCc1ccccc1)C(=O)CCc1ccccc1 [γ5]	300	75	300	2.5 to 5	3 (≈ 1.42 µM)	5 (≈ 2.37 µM)	5 (≈ 2.37 µM)	>50	25 to 50	2 (≈ 0.947 µM)	2 (≈ 0.947 µM)	3.1 to 6.25	3.1 to 6.3	5 (≈ 2.37 µM)	3.1 to 6.25	3.1 to 6.3	5 (≈ 2.37 µM)	5 (≈ 2.37 µM)	5 (≈ 2.37 µM)	5 (≈ 2.37 µM)	Hemolysis H10 [1]: 75 µg/mL; Hemolysis H50 [1]: 300 µg/mL; MIC, MRSA USA100 (leading hospital-associated strain) ([7]; Table 1): 5 µg/mL (≈ 2.37 µM); MIC, B. anthracis (lethal bioweapon) (B. anthracis; Table 1): 5 µg/mL (≈ 2.37 µM); MIC, Fungi C. albicans (C. albicans (ATCC 10231); ATCC 10231): 5 to 10 µg/mL; MIC, Fungi, C. albicans (C. albicans (ATCC 10231); ATCC 10231): 8 µg/mL (≈ 3.79 µM); MIC, Fungi C. albicans (C. albicans (ATCC 10231); ATCC 10231, 48 h): 5 to 10 µg/mL
GIGKFLKKAKKFGKAFVKILKK-NH2 [Pexiganan, pexiganan]	–	–	–	–	–	–	–	–	–	–	–	–	–	–	–	–	–	–	–	–	Hemolysis (H50) [8]: >500 µg/mL; Hemolysis H10 [8]: 181 µg/mL; Hemolysis H50 [8]: 495 µg/mL
CCCCCCCCCCCC(=O)N[C@@H](CCCCN)CN(CC(N)=O)C(=O)CCCN [Sequence 1]	–	400	> 500	–	>50	>50	–	>50	–	–	>50	–	–	>50	–	–	>50	–	>50	–	antimicrobial activity against the tested panel, in words [9]: not active toward any microorganism; MIC, Fungi, C. albicans (C. albicans (ATCC 10231); ATCC 10231): >50 µg/mL
CCn1cc(C(=O)O)c(=O)c2cc(F)c(N3CCNCC3)cc21 [norfloxacin, reference compound]	–	–	–	–	–	–	–	–	–	–	–	–	–	–	–	–	–	–	–	–	passages after which the MIC started to increase (S. aureus ATCC 33592): three
KFKFKFKFKFKFKF-NH2 [pl, reference compound]	>500	–	–	>100	–	–	>100	–	–	>100	–	>100	–	–	>100	–	–	>100	–	–	antimicrobial activity against the tested panel, in words [9]: does not show any antimicrobial activity at all; MIC, Fungi C. albicans (C. albicans (ATCC 10231); ATCC 10231, 48 h): >100 µg/mL
CCCCCCCCCCCCCCCC(=O)N[C@@H](C)CN(CC(=O)N[C@@H](C)CN(CC(=O)N[C@@H](CC(C)C)CN(CC(=O)N[C@@H](CC(C)C)CN(CC(=O)N[C@@H](CC(C)C)CN(CC(N)=O)C(=O)CCCN)C(=O)CCCN)C(=O)CCCN)C(C)=O)C(C)=O [γAA2]	>500	–	–	2.5 (≈ 1.94 µM)	–	–	5 (≈ 3.87 µM)	–	25 to 50	2.5 (≈ 1.94 µM)	–	–	4 (≈ 3.1 µM)	–	–	5 (≈ 3.87 µM)	–	–	–	10 (≈ 7.74 µM)	development of resistance (change in MIC over 17 passages), in words (S. aureus ATCC 33592; 17 days): did not cause resistance; MIC, S. aureus (methicillin-resistant) ([6]; Table 3): 4 µg/mL (≈ 3.1 µM); MIC, B. anthracis (lethal bioweapon) (B. anthracis; Table 3): 5 µg/mL (≈ 3.87 µM); MIC, Fungi C. albicans (C. albicans (ATCC 10231); ATCC 10231): 5 µg/mL (≈ 3.87 µM)
